“Also recorded” adds a separate entry of the source.
Assays:
Test in all cases: Human Phospho-Kinase Array in HL60 cells
Assay type in all cases: cell-based
[1] = test system: AMPKα1
Excerpt: (§1) We also measured changes in kinase activities of some selected Ser/Thr kinases using the Human Phospho-Kinase Array® kit (R&D Systems) which encompasses phosphoprotein-specific capture antibodies spotted at a certain location (in duplicates) on a nitrocellulose membrane. The signal intensities, detected by a sandwich immunoassay, are proportional to the amount of each phosphokinase in the cell lysate (Figure 8).
(§2) FIGURE 8 Phosphokinase proteome profile of KIM-161 in HL60 cell line. (A) Cells lysates were prepared after 10 h treatment with KIM-161 and applied to the membranes prespotted with the different antibodies. […] The height of each bar represents the average intensity of certain protein signals in treated cells/untreated × 100. Therefore, the dotted line represents the control percentage (100%).
(§3) The phosphorylation profile of 48 kinases was performed using the Proteome Profiler Human Phospho-Kinase Array an antibody array kit, by R&D Systems (Minneapolis, MN, USA). Total protein was extracted from the cell lysates treated with 365 nM KIM-161 for 10 h using the lysis buffer provided in the kit and quantified using the Bio-Rad DC Protein Assay kit (USA). The nitrocellulose membrane set (A&B), pre-spotted with the capture antibodies, was first blocked with 1 ml of Array buffer 1 at RT for 1 h in an 8-well multi-dish on a rocking platform shaker. Approximately 600 µg of protein concentrate (<334 µL) was diluted in the Array buffer 1 to a final volume of 2 ml. 1 ml of the protein sample was added onto the membrane set and incubated overnight at 4°C on a rocking platform shaker. Subsequently, membranes were washed with 15 ml of 1× wash buffer thrice for 5 min at RT, and the excess buffer was completely drained. The membranes A&B were then incubated with appropriate detection antibody cocktails A&B that were reconstituted using the 1× Array buffer 2/3 for 2 h at RT. After the incubation was complete, the membranes were washed with 15 ml of 1× wash buffer thrice for 5 min at RT, and the excess buffer was completely drained. Streptavidin-HRP (1:2000), diluted in 1× Array buffer 2/3, was applied onto the membranes and incubated for 30 min at RT on a rocking platform shaker. The membranes were washed thrice, and Chemi Reagent 1&2 were applied in equal volumes for detection on C-DiGit®Blot Scanner (LI-COR Odyssey Imaging Systems, Lincoln, Nebraska, USA) using the Image Studio 5.0 software.

[2] = test system: ERK1/2 (T202/Y204, T185/Y187)
Excerpt: as §1, §2, §3

[3] = test system: JNK 1/2/3
Excerpt: as §1, §2, §3

[4] = test system: C-Jun
Excerpt: as §1, §2, §3

[5] = test system: HSP60
Excerpt: as §1, §2, §3

[6] = test system: GSK-3α/β (S21/S9)
Excerpt: as §1, §2, §3

[7] = test system: AKT 1/2/3; conditions: 10 h (KIM-161 365 nM)
Excerpt: as §1, §2, §3

[8] = test system: HSP27 (S78/S82)
Excerpt: as §1, §2, §3

[9] = test system: CREB
Excerpt: as §1, §2, §3

[10] = AMPKα1 spot, HL60 cells, 10 h (KIM-161 365 nM)
[11] = HL60, 365 nM, 10 h, vs untreated, listed as KIM-161
[12] = ERK1/2 spot, HL60 cells, 10 h (KIM-161 365 nM)
[13] = HL60, 365 nM, 10 h, vs untreated
[14] = JNK 1/2/3 spot, HL60 cells, 10 h (KIM-161 365 nM)
[15] = C-Jun spot, HL60 cells, 10 h (KIM-161 365 nM)
[16] = HSP60 spot, HL60 cells, 10 h (KIM-161 365 nM)
[17] = GSK-3α/β spot, HL60 cells, 10 h (KIM-161 365 nM)
[18] = HSP27 spot, HL60 cells, 10 h (KIM-161 365 nM)
[19] = CREB spot, HL60 cells, 10 h (KIM-161 365 nM)

COc1ccc(/C=C2\N=C(C)N(c3ccc(CC(=O)NCc4ccccc4)cc3)C2=O)cc1 [Compound 4c, (Z)-N-Benzyl-2-(4-(4-(4-methoxybenzylidene)-2-methyl-5-oxo-4,5-dihydro-1H-imidazol-1-yl)phenyl)acetamide]
Normalized to HK [1, 10]: 0.0019
Normalized x10K [1, 10]: 18.91
Signal [1, 10]: 6.64
change of AMPKα1 phosphorylation [1, 11]: downregulated; also recorded: to a quarter of its level compared to the control
activity at 0.365 µM ([1]; Homo sapiens, HL-60, AMPKα1 spot, HL60 cells, 10 h (KIM-161 365 nM), untreated = 100, read-out: % Ctrl): 27.9%
Normalized to HK [2, 12]: 0.0000
Normalized x10K [2, 12]: 0.00
Signal [2, 12]: 0.00
change of ERK1/2 phosphokinase signal [2, 11]: strongly suppresses; also recorded: strong downregulation
activity at 0.365 µM ([2]; Homo sapiens, HL-60, ERK1/2 spot, HL60 cells, 10 h (KIM-161 365 nM), untreated = 100, read-out: % Ctrl): 0%
reduction of JNK1/2/3 activity [3, 13]: 26.0%
activity at 0.365 µM ([3]; Homo sapiens, HL-60, JNK 1/2/3 spot, HL60 cells, 10 h (KIM-161 365 nM), untreated = 100, read-out: % Ctrl): 74%
Normalized to HK [3, 14]: 0.0031
Normalized x10K [3, 14]: 31.34
Signal [3, 14]: 11.01
Normalized to HK [4, 15]: 0.1136
Normalized x10K [4, 15]: 1136.44
Signal [4, 15]: 451.20
enhancement of c-Jun [4, 13]: 15.8%
activity at 0.365 µM ([4]; Homo sapiens, HL-60, C-Jun spot, HL60 cells, 10 h (KIM-161 365 nM), untreated = 100, read-out: % Ctrl): 116%
reduction of HSP60 activity [5, 13]: 28.5%
Normalized to HK [5, 16]: 0.0227
Normalized x10K [5, 16]: 227.18
Signal [5, 16]: 90.20
activity at 0.365 µM ([5]; Homo sapiens, HL-60, HSP60 spot, HL60 cells, 10 h (KIM-161 365 nM), untreated = 100, read-out: % Ctrl): 71.5%
Normalized to HK [6, 17]: 0.0000
Normalized x10K [6, 17]: 0.00
Signal [6, 17]: 0.00
change of GSK-3α/β phosphokinase signal [6, 11]: strongly suppresses; also recorded: strong downregulation
activity at 0.365 µM ([6]; Homo sapiens, HL-60, GSK-3α/β spot, HL60 cells, 10 h (KIM-161 365 nM), untreated = 100, read-out: % Ctrl): 0%
Normalized to HK ([7]; AKT 1/2/3 spot): 0.00
Normalized x10K ([7]; AKT 1/2/3 spot): 0.00
Signal ([7]; AKT 1/2/3 spot): 0.00
activity at 0.365 µM ([7]; Homo sapiens, HL-60, AKT 1/2/3 spot, untreated = 100, read-out: % Ctrl): 0%
change of HSP27 phosphokinase signal [8, 11]: strongly suppresses; also recorded: strong downregulation
Normalized to HK [8, 18]: 0.00
Normalized x10K [8, 18]: 0.00
Signal [8, 18]: 0.00
activity at 0.365 µM ([8]; Homo sapiens, HL-60, HSP27 spot, HL60 cells, 10 h (KIM-161 365 nM), untreated = 100, read-out: % Ctrl): 0%
Normalized to HK [9, 19]: 0.0405
Normalized x10K [9, 19]: 405.44
Signal [9, 19]: 142.45
reduction of CREB activity [9, 13]: 36.7%
activity at 0.365 µM ([9]; Homo sapiens, HL-60, CREB spot, HL60 cells, 10 h (KIM-161 365 nM), untreated = 100, read-out: % Ctrl): 63.3%
